Experimental data as given in ChEMBL document CHEMBL1201862, “PubChem BioAssay data set” (2004).
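1) Cells in 96-well plates. 2) Compound, 48 h, 5 concentrations. 3) Linear interpolation between surrounding doses. 4) Unreached endpoint = highest concentration. GI50 marks 50% less growth.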 The source made the active and inactive calls. Rule as the data show it: active = GI50 up to about 1.1 µM and inactive = higher.

How the values were obtained:
Experiment in all cases: DTP human tumour cell line panel, 48 h
OVCAR-5 = tested on: OVCAR-5
CCRF-CEM = tested on: CCRF-CEM
ACHN = tested on: ACHN
HCT-15 = tested on: HCT-15
MCF7 = tested on: MCF7
786-0 = tested on: 786-0
SF-268 = tested on: SF-268
SNB-75 = tested on: SNB-75
HOP-92 = tested on: HOP-92
DU-145 = tested on: DU-145
K562 = tested on: K562
SNB-19 = tested on: SNB-19
RXF 393 = tested on: RXF 393
COLO 205 = tested on: COLO 205
NCI/ADR-RES = tested on: NCI/ADR-RES
NCI-H23 = tested on: NCI-H23
Hs-578T = tested on: Hs-578T
A498 = tested on: A498
Malme-3M = tested on: Malme-3M

Compound | GI50 (OVCAR-5) | GI50 (CCRF-CEM) | GI50 (ACHN) | GI50 (HCT-15) [µM] | GI50 (MCF7) | GI50 (786-0) | GI50 (SF-268) | GI50 (SNB-75) | GI50 (HOP-92) | GI50 (DU-145) | GI50 (K562) | GI50 (SNB-19) | GI50 (RXF 393) | GI50 (COLO 205) | GI50 (NCI/ADR-RES) | GI50 (NCI-H23) | GI50 (Hs-578T) | GI50 (A498) | GI50 (Malme-3M)
COc1ccc(OC)c(/C=C/c2cnnc3ccccc23)c1 | > 10 µM (inactive) | 3.38 µM (inactive) | > 10 µM (inactive) | 1.96 | 1.85 µM (inactive) | 6.67 µM (inactive) | 4.79 µM (inactive) | 4.19 µM (inactive) | 3.89 µM (inactive) | > 10 µM (inactive) | 2.33 µM (inactive) | 6.46 µM (inactive) | 2.25 µM (inactive) | 4.1 µM (inactive) | 2.39 µM (inactive) | 4.8 µM (inactive) | 1.43 µM (inactive) | – | –
CC1C/C(=C\c2ccc(OC(=O)C(C)(C)C)cc2)C(=O)/C(=C/c2ccc(OC(=O)C(C)(C)C)cc2)C1 (centres undefined) | > 100 µM (inactive) | 2.34 µM (inactive) | 69.3 µM (inactive) | > 100 | 45.5 µM (inactive) | 54.3 µM (inactive) | 87.7 µM (inactive) | – | > 100 µM (inactive) | > 100 µM (inactive) | 84.7 µM (inactive) | > 100 µM (inactive) | 19.8 µM (inactive) | > 100 µM (inactive) | > 100 µM (inactive) | 24 µM (inactive) | 49.3 µM (inactive) | 33.6 µM (inactive) | > 100 µM (inactive)
COc1ccc(-c2oc3c(CC(=O)O)cccc3c(=O)c2OC)cc1 | > 100 µM (inactive) | > 100 µM (inactive) | > 100 µM (inactive) | – | > 100 µM (inactive) | > 100 µM (inactive) | > 100 µM (inactive) | – | – | > 100 µM (inactive) | > 100 µM (inactive) | – | > 100 µM (inactive) | > 100 µM (inactive) | > 100 µM (inactive) | > 100 µM (inactive) | > 100 µM (inactive) | > 100 µM (inactive) | > 100 µM (inactive)
COc1cc2c(cc1OC)C(C)N(C)c1c-2c(OC(C)=O)cc2cc(OC)c(OC)cc12 (centres undefined) | 36.4 µM (inactive) | 31.6 µM (inactive) | 17.3 µM (inactive) | 15 | 12.5 µM (inactive) | 13.1 µM (inactive) | 26.9 µM (inactive) | 31 µM (inactive) | – | 16.9 µM (inactive) | 23.4 µM (inactive) | 27.5 µM (inactive) | 6.12 µM (inactive) | 6.43 µM (inactive) | 7.48 µM (inactive) | 15.4 µM (inactive) | 19.1 µM (inactive) | 10.7 µM (inactive) | 3.72 µM (inactive)
COC(=O)c1c(O)c2c(c3c1OC(C)(C)CC3)OC(C)(C)CC2 | 18.4 µM (inactive) | 23 µM (inactive) | 18 µM (inactive) | 21.2 | 18.2 µM (inactive) | 16.8 µM (inactive) | 22.9 µM (inactive) | > 10 µM (inactive) | – | 24.5 µM (inactive) | 25.1 µM (inactive) | 18.2 µM (inactive) | – | 15 µM (inactive) | 22.1 µM (inactive) | 20.1 µM (inactive) | 20.8 µM (inactive) | 18.7 µM (inactive) | 0.824 µM (active)
O=C(N(O)c1ccccc1Cl)C(O)(c1ccccc1)c1ccccc1 | 82 µM (inactive) | 15.4 µM (inactive) | 52.8 µM (inactive) | 39.3 | 56.8 µM (inactive) | 31.3 µM (inactive) | > 100 µM (inactive) | – | 26.1 µM (inactive) | 59.8 µM (inactive) | 24.4 µM (inactive) | > 100 µM (inactive) | 51.2 µM (inactive) | > 100 µM (inactive) | 63.8 µM (inactive) | > 100 µM (inactive) | 42.5 µM (inactive) | > 100 µM (inactive) | > 100 µM (inactive)
N/C(CCSCCSCC/C(N)=N\O)=N\O | > 100 µM (inactive) | > 100 µM (inactive) | > 100 µM (inactive) | > 100 | > 100 µM (inactive) | > 100 µM (inactive) | > 100 µM (inactive) | > 100 µM (inactive) | > 100 µM (inactive) | > 100 µM (inactive) | > 100 µM (inactive) | > 100 µM (inactive) | > 100 µM (inactive) | > 100 µM (inactive) | > 100 µM (inactive) | > 100 µM (inactive) | > 100 µM (inactive) | – | > 100 µM (inactive)
COc1cccc(N2C(=O)CSC2c2cc(OC)c(OC)c(OC)c2)c1 (centres undefined) | 54.8 µM (inactive) | 19.1 µM (inactive) | 57.7 µM (inactive) | 20 | 19.4 µM (inactive) | 28.9 µM (inactive) | > 100 µM (inactive) | – | > 100 µM (inactive) | 12 µM (inactive) | 25.9 µM (inactive) | 23.1 µM (inactive) | – | 23 µM (inactive) | 26.5 µM (inactive) | 29.2 µM (inactive) | 48.2 µM (inactive) | > 100 µM (inactive) | –
COC(=O)C#Cc1cccc(OC)c1OC | 22.5 µM (inactive) | 26.6 µM (inactive) | 60 µM (inactive) | 32.4 | 19.7 µM (inactive) | 43.8 µM (inactive) | – | – | 25.8 µM (inactive) | 88.1 µM (inactive) | 21.1 µM (inactive) | 60.3 µM (inactive) | – | 27 µM (inactive) | 30.3 µM (inactive) | 41.3 µM (inactive) | 37.3 µM (inactive) | 45 µM (inactive) | 28 µM (inactive)
Cc1cc(CCC(=O)NCCNc2c3ccccc3nc3ccccc23)cc(C)c1O[Si](C)(C)C(C)(C)C | 1.69 µM (inactive) | 0.38 µM (active) | 1.66 µM (inactive) | 0.282 | 0.242 µM (active) | 0.39 µM (active) | – | – | 1.53 µM (inactive) | 1.1 µM (active) | 0.276 µM (active) | 1.85 µM (inactive) | 1.5 µM (inactive) | 1.03 µM (active) | 1.81 µM (inactive) | 1.93 µM (inactive) | 2.01 µM (inactive) | 0.525 µM (active) | 2.06 µM (inactive)
CO[C@]12C[C@H](CNC(=O)c3ccc[nH]3)O[C@H]1NC(=O)N2 | > 100 µM (inactive) | > 100 µM (inactive) | > 100 µM (inactive) | > 100 | > 100 µM (inactive) | > 100 µM (inactive) | > 100 µM (inactive) | – | > 100 µM (inactive) | > 100 µM (inactive) | > 100 µM (inactive) | > 100 µM (inactive) | – | > 100 µM (inactive) | > 100 µM (inactive) | > 100 µM (inactive) | > 100 µM (inactive) | > 100 µM (inactive) | > 100 µM (inactive)
CC(=O)OC1COC(Nn2c(=O)[nH]c3ccccc3c2=O)C(OC(C)=O)C1OC(C)=O (centres undefined) | > 100 µM (inactive) | > 100 µM (inactive) | > 100 µM (inactive) | > 100 | > 100 µM (inactive) | > 100 µM (inactive) | > 100 µM (inactive) | 30.3 µM (inactive) | > 100 µM (inactive) | > 100 µM (inactive) | > 100 µM (inactive) | > 100 µM (inactive) | – | > 100 µM (inactive) | 17.9 µM (inactive) | > 100 µM (inactive) | 13.6 µM (inactive) | > 100 µM (inactive) | –
